Consider three molecules from paper PMC10489817, “2-Alkyl-Substituted-4-Amino-Thieno[2,3-d]Pyrimidines: Anti-Proliferative Properties to In Vitro Breast Cancer Models” (Molecules, 2023).

Like-named read-outs stand apart in the source and are kept apart here.

One data set relates to MCF-7. Briefly: MTT anti-proliferative test, MCF-7. Type of data set: cell-based, human. Particulars: for SI (selective index) MCF-7: IC50 MCF-10A/IC50 MCF-7. From the text:
The MCF-10A cell line (normal human mammary epithelial cells) served as a reference control.
All breast cell lines (MCF-10A, MCF-7, and MDA-MB-231) were purchased from the American Type Culture Collection—ATCC (Manassas, VA, USA). The MCF-7 and MDA-MB-231 were cultivated in Dulbecco’s modified Eagle’s medium (DMEM) and supplemented with 10% fetal bovine serum (FBS), 1% sodium pyruvate, and 1% MEM non-essential amino acids (NEAA) without antibiotics. The non-tumorigenic breast cell line (MCF-10A) was cultivated in DMEM medium (Sigma-Aldrich, St. Louis, MO, USA) and supplemented with 10% FBS, 1% sodium pyruvate, 1% non-essential amino acids (NEAA), 20 ng/mL human epithelia growth factor (hEGF), 10 μg/mL insulin, and 0.5 μg/mL hydrocortisone without antibiotics. All cell lines were maintained in a humidified atmosphere, with 5% CO2 at 37 °C.
Using the standard MTT-dye reduction assay described by Mosmann, the anti-proliferative activity was tested. The method is based on the metabolism of the tetrazolium salt MTT to insoluble formazan. The formazan absorption was registered using a microplate reader at λ = 540 nm. The measured absorption is an indicator of cell viability and metabolic activity. Anti-proliferative activities were expressed as IC50 values (concentrations required for 50% inhibition of cell growth), calculated using non-linear regression analysis (GraphPad Software, San Diego, CA, USA).
(In general: Formazan colour is commonly taken as a measure of viable cells.)

The test system of a further data set is BALB 3T3 cells. As to the kind of experiment: in vitro 3T3 NRU test, phototoxicity. Particulars: for IC50: Mus musculus, light or radiation study; for PIF (photo-irritancy factor): PIF = CC50/PC50, <2 not phototoxic. Type of data set: cell-based, mouse. The procedure: (§1) Compounds 2–5 were studied for cytotoxicity/phototoxicity by an in vitro 3T3 NRU-test. The cell line BALB 3T3, clone A31 (mouse embryo fibroblasts), was incubated with the test compounds at a concentration from 15 to 4000 µg/mL for 24 h at 37 °C, 5% CO2, and 95% humidity. The cytotoxicity and phototoxicity were expressed in percentages relative to the negative control determined. […] Based on the dose–response curves, the CC50/PC50 values (50% cytotoxic/phototoxic concentration) were calculated by nonlinear regression analysis (Table 1). The CC50 values can be used to calculate the PIF (photo-irritancy factor) for each test compound according to the following formula: PIF = CC50/PC50.
(§2) BALB/3T3 cells were cultured in 75 cm^2 tissue culture flasks in DMEM, 10% FBS, 2 mM glutamine, and antibiotics (penicillin 100 U/mL and streptomycin-100 µg/mL) at 37 °C, 5% CO2, and 90% relative humidity. Cytotoxicity/phototoxicity was assessed by a validated BALB/3T3 clone A31 neutral red uptake assay (3T3 NRU test). Briefly, cells were plated in a 96-well microtiter plate at a density of 1 × 10^4 cells/100 µL/well and incubated for 24 h. A wide concentration range was applied for the test compounds. For the phototoxicity tests, 96-well plates were irradiated with a dose of 2.4 J/cm^2, and the cells were incubated for an additional 24 h. After treatment with neutral red medium, washing, and treatment with the ethanol/acetic acid solution, the absorption was measured on a TECAN microplate reader (TECAN, Grödig, Austria) at a wavelength of 540 nm. The light source which we used was a light-emitting diode (LED) matrix—an artificial solar light simulator Helios-iO, model LE-9ND55-H—5500K (SERIC Ltd., Tokyo, Japan).
Cytotoxicity/phototoxicity were expressed as CC50/PC50 values (concentrations required for 50% cytotoxicity/phototoxicity), calculated using non-linear regression analysis (GraphPad Software GraphPad Prism 9.5.1, San Diego, CA, USA). The CC50 values were used to calculate the PIF (photo-irritancy factor) for each test substance, according to the following formula:
PIF = Cytotoxicity (CC50)/Phototoxicity (PC50)

The nature of data set [1]: in vitro 3T3 NRU test, cytotoxicity. The data set is classed as cell-based, mouse. The following applies: mouse, BALB/3T3 clone A31 cells (mouse embryo fibroblasts). The procedure:
as §1, §2
Cytotoxicity/phototoxicity were expressed as CC50/PC50 values (concentrations required for 50% cytotoxicity/phototoxicity), calculated using non-linear regression analysis (GraphPad Software GraphPad Prism 9.5.1, San Diego, CA, USA). The CC50 values were used to calculate the PIF (photo-irritancy factor) for each test substance, according to the following formula: […]

Setting [2] is: Homo sapiens, MCF7, MTT, read-out: IC50 MCF-7 (converted).
[3] abbreviates: Homo sapiens, MCF7, MTT, read-out: IC50 of Mean ± SD, Anti-Proliferative Activity MCF-7.
[4] abbreviates: MTT, read-out: IC50 MCF-7 (converted).
[5] abbreviates: BALB 3T3, irradiated 2.4 J/cm^2 (PC50), read-out: IC50 of Mean ± SD, Phototoxicity.
The mark [6] stands for this setting: BALB 3T3, irradiated, value in brackets, read-out: IC50, Phototoxicity (converted).
[7] abbreviates: BALB 3T3, 24 h, NRU, no irradiation (CC50), read-out: IC50 of Mean ± SD, Cytotoxicity.
Setting [8] is: BALB 3T3, value in brackets, read-out: IC50, Cytotoxicity (converted).

In general, IC50 refers to the concentration that gives 50% inhibition. What is called melting point is the temperature, or range, at which the solid turns liquid. The molecule `CCOC(=O)c1sc2nc(C)nc(N)c2c1C` [Compound 5, Ethyl 4-Amino-2,5-Dimethyl-Thieno[2,3-d]Pyrimidine-6-Carboxylate] showed a melting point of 203 to 204 °C. Further, in the data set with MCF-7 (setting [2]), the IC50 is 100 µM. Further, in the data set on MCF-7 (setting [3]), the 50% inhibitory concentration (IC50) is 35.5 ± 1.5 µg/mL. In the data set with MCF-7, the “SI (selective index) MCF-7” value was found to be 17.4. The half-maximal inhibitory concentration (IC50) in the data set on MCF-7 (setting [4]) is 140 µM. Besides, the IC50 with BALB 3T3 cells (setting [5]) was 2350 ± 114 µg/mL. Besides, the IC50 with BALB 3T3 cells (setting [6]) was 9400 µM. In the data set on BALB 3T3 cells, the “PIF (photo-irritancy factor)” value came to 1.2. Also, the half-maximal inhibitory concentration (IC50) at 24 h in data set [1] (setting [7]) came to 1540 ± 61.5 µg/mL. Moreover, the half-maximal inhibitory concentration (IC50) at 24 h in data set [1] (setting [8]) was 5400 µM.
`CCOC(=O)c1sc2nc(CC)nc(N)c2c1C` [Compound 4, Ethyl 4-Amino-2-Ethyl-5-Methylthieno[2,3-d]Pyrimidine-6-Carboxylate] returned a melting point of 173 to 175 °C. Also, the IC50 in the data set on MCF-7 (setting [2]) was 100 µM. The IC50 in the data set with MCF-7 (setting [3]) turned out to be 28.9 ± 2.1 µg/mL. Moreover, the “SI (selective index) MCF-7” value with MCF-7 is 12.7. Further, the IC50 in the data set on MCF-7 (setting [4]) was 110 µM. In addition, the half-inhibitory concentration (IC50) in the data set on BALB 3T3 cells (setting [5]) worked out at 2110 ± 122 µg/mL. In the data set on BALB 3T3 cells (setting [6]), the half-maximal inhibitory concentration (IC50) is 8000 µM. The “PIF (photo-irritancy factor)” value in the data set on BALB 3T3 cells was 1.2. For the same molecule, the IC50 at 24 h in data set [1] (setting [7]) is 2630 µg/mL. In data set [1] (setting [8]), the IC50 at 24 h was 9370 µM.
The molecule `CCOC(=O)Cc1nc(N)c2c(C)c(C(=O)OCC)sc2n1` [Compound 2, Ethyl 4-Amino-2-(2-Ethoxy-2-Oxoethyl)-5-Methylthieno[2,3-d]Pyrimidine-6-Carboxylate] displayed a melting point of 206 to 207 °C. Besides, the IC50 in the data set on MCF-7 (setting [2]) is 300 µM. In the data set on MCF-7 (setting [3]), the IC50 is 83.1 ± 7.3 µg/mL. Also, the “SI (selective index) MCF-7” value with MCF-7 stood at 6.1. Besides, in the data set with MCF-7 (setting [4]), the IC50 is 260 µM. For the same molecule, in the data set with BALB 3T3 cells (setting [5]), the IC50 came to 1080 ± 117 µg/mL. Also, the concentration for half-maximal inhibition (IC50) in the data set with BALB 3T3 cells (setting [6]) was 3300 µM. Also, in data set [1] (setting [7]), the 50% inhibitory concentration (IC50) at 24 h amounted to 1740 ± 75.5 µg/mL. Moreover, in data set [1] (setting [8]), the half-maximal inhibitory concentration (IC50) at 24 h was 5370 µM.
